These results are taken from patent US20260176284A1, “Compounds with Anti-KRAS Mutated Tumor Activity” (Trasveda Ltd., priority 2022, published 2026).

Data set [1] deals with KRAS G12D mutated AGS human gastric adenocarcinoma cells. Kind of data set: Proliferation inhibition of KRAS G12D mutant AGS cells, another experiment with similar protocol (includes MRTX1133). The conditions noted are these: Homo sapiens. The class given is cell-based. As to the method: In another experiment, using a protocol similar to the one described above, the inhibitory activity of some representative compounds of the present invention against KRAS G12D mutated AGS human gastric adenocarcinoma cells was determined.
The synthesis of compound MRTX1133 was performed according to the method described in J. Med. Chem. 2022, 65, 4, 3123-3133.

The next data set relates to HPAC cells. In words: 3D proliferation inhibition of KRAS G12D mutated tumor cells, HPAC. The class given is cell-based, human. The conditions noted are these: Homo sapiens, HPAC, 3D methylcellulose culture, CTG, 120 hours. From the text:
(§1) This experiment evaluated and verified the proliferation inhibitory activity of the representative compounds of the present invention against the following five strains of KRAS-related tumor cells.
(§2) The following materials, reagents and instruments were used in this experiment: Five strains of cells were all from Nanjing Kebai Biotechnology Co., Ltd. (GP2D, CBP60010; HPAC, CBP60539; AsPC-1, CBP60546; KP-4, CBP60541; Panc 04.03, CBP60683); DMEM (Gibco, 11965092); RPMI-1640 (Gibco, SH30809.01); HPAC complete medium (Cobioer, CBP60539M); Fetal bovine serum FBS (Gibco, 10091-148); Insulin (Gibco, 41400045); Methylcellulose (methylcellulose, Sigma, 9004-67-5); Phosphate-buffered saline DPBS (Comning, 21-031-CVC); CellTiter-Glo® Luminescent Cell Viability Assay (Promega, Cat #G7573); 96-well clear flat-bottom black-wall plate (Corning, 3603); EnVision multilabel plate reader (PerkinElmer #2105); CO2 incubator (Thermo Scientific, Model 3 71 Series).
(§3) A sterilized 1% methylcellulose 3D culture medium was prepared in advance. The cells in the logarithmic growth phase were harvested, and a Countstar automatic cell counter based on the principle of the classic trypan blue staining method was used for cell counting and detecting cell viability to ensure that the cell viability was above 90%. The cell concentrations of GP2D, HPAC, AsPC-1, KP-f4, and Panc 04.03 were adjusted so that the final concentration of methylcellulose was 0.65%, and the mixture was allowed to stand after being well-mixed. After there were no visible air bubbles in the cell suspension, 80 μL of the cell suspension was added to each well of a 96-well plate, with a total of 1000-2000 cells. The cells in the 96-well plate were cultured overnight at 37° C., 5% CO2, and 95% humidity.
(§4) Drug Preparation for IC50 Determination: First, a 10 mM DMSO stock solution of each compound was prepared. For the first dilution, using DMSO as the solvent, each compound was first diluted to 5 mM and then serially diluted 3-fold to obtain 9 concentrations, preparing DMSO solutions of each compound at different concentrations. For the second dilution, a 5-fold diluted solution of each compound was prepared by a 1:100 dilution, using the complete medium as the solvent. […]
(§5) The cells in the 96-well plate with the added drugs were further cultured at 37° C. and 5% CO2 for 120 hours, and then a CTG analysis was performed. […] The cell plate was placed at room temperature for 20 minutes to stabilize the luminescence signal. The luminescence value was read, and the data were collected.
(§6) The data were analyzed using GraphPad Prism 9.0 software. Non-linear S-curve regression was used to fit the data to obtain the dose-response curve, and the IC50 value (nM) was calculated accordingly. […]

The test system of another data set is AsPC-1 cells. In words: 3D proliferation inhibition of KRAS G12D mutated tumor cells, AsPC-1. The class given is cell-based. As to conditions: Homo sapiens, ASPC1, 3D methylcellulose culture, CTG, 120 hours.
Text: as §1, §2
A sterilized 1% methylcellulose 3D culture medium was prepared in advance. The cells in the logarithmic growth phase were harvested, and a Countstar automatic cell counter based on the principle of the classic trypan blue staining method was used for cell counting and detecting cell viability to ensure that the cell viability was above 90%. The cell concentrations of GP2D, HPAC, AsPC-1, KP-f4, and Panc 04.03 were adjusted so that the final concentration of methylcellulose was 0.65%, and the mixture was allowed to stand after being well-mixed. […]
as §5, §6

Data set [2] relates to human pancreatic cancer cells HPAC (carrying KRas G12D mutant protein). In words: In vivo pharmacodynamics, subcutaneous xenograft of human pancreatic cancer cells HPAC. The conditions noted are these: NOD/SCID mice, 50 mpk, PO. As to the method:
The following materials were used in this experiment: NOD/SCID mice, 6-8 weeks old, female, Jiangsu Ji Cai Yao Kang Biotechnology Co., Ltd.; HPAC cells (carrying KRas G12D mutant protein, ATCC); Captisol (Wuhan Fengyao Tonghui Chemical Products Co., Ltd., Cas #182410-00-0); Sodium acetate (aladdin); MC (sigma, 9004-67-5).
The experiment was carried out as follows: Female NOD/SCID mice aged 6-8 weeks were subcutaneously inoculated with 1-10^7 HPAC cells on the right posterior side of the back, with an inoculation volume of 0.1 mL. When the tumors grew to an average volume of 150 mm^3, the mice were randomly grouped for administration according to the tumor size and body weight. The day of administration was regarded as day 0. The administration was carried out once a day. The test compound was administered by tail vein injection or gavage, with 5 mice in each group at a dose of 10 mg/kg. The control group was administered with an equal volume of the solvent control by tail vein injection or gavage.
During the experiment, the tumor volume and body weight were measured twice a week. The formula for calculating the tumor volume was: Tumor volume (mm^3)=0.5×(tumor major axis×tumor minor axis^2). The average tumor inhibition rate TGI %=[(average tumor volume of the control group−average initial tumor volume of the control group)−(average tumor volume of the administration group−average initial tumor volume of the administration group)]/(average tumor volume of the control group−average initial tumor volume of the control group).
(In general: A xenograft is tissue or cells of one species grown in another, often human tumour cells in immunodeficient mice.)

In a further data set the test system is Panc 04.03 cells. Kind of data set: 3D proliferation inhibition of KRAS G12D mutated tumor cells, Panc 04.03. The class given is cell-based. As to conditions: Homo sapiens, Panc 04.03, 3D methylcellulose culture, CTG, 120 hours.
Text: as §1, §2, §3, §4, §5, §6

The nature of data set [3]: Mouse pharmacokinetics (IV and PO). As to conditions: 10 mg/kg, male CD-1 mice, PO (gavage), 1 mg/mL at 10 mL/kg, plasma. The class given is in vivo. On the procedure:
The pharmacokinetic properties of the compounds of the present invention were evaluated through a mouse pharmacokinetic experiment.
Male CD-1 mice, aged 6-8 weeks old, were purchased from Zhejiang Vital River Laboratory Animal Co., Ltd.
IV administration group: The compound was formulated into a sodium acetate buffer solution (10 mM sodium acetate solution, adjusted to pH 4.0 with acetic acid) containing 20% Captisol (sulfobutyl β-cyclodextrin) so that the final concentration of each compound was 0.6 mg/mL. The drug formulation was injected into the tail vein of CD-1 mice at an injection volume of 5 mL/kg. After administration, blood samples were collected from the submandibular vein or by other appropriate methods at 5 min, 15 min, 30 min, 1 h, 2 h, 4 h, 6 h, 8 h, and 24 h. The blood samples were centrifuged at a low temperature for 6 minutes, and the plasma was collected and stored at −80° C. for testing. The PO administration group formulated the compound into a solvent of 0.5% Tween 80+99.5% (0.5% MC (400 cp)) or 5% DMSO+95% (0.5% MC (400 cp)) so that the final concentration of each compound was 1 mg/mL. The drug formulation was administered to CD-1 mice by gavage at a volume of 10 mL/kg. After administration, blood samples were collected from the submandibular vein or by other appropriate methods at 15 min, 30 min, 1 h, 2 h, 4 h, 6 h, 8 h, and 24 h. The blood samples were centrifuged at a low temperature for 6 minutes, and the plasma was collected and stored at −80° C. for testing.
10 μL of the plasma sample was taken, and 200 μL of methanol containing an internal standard was added as a precipitating agent to precipitate plasma proteins and extract the compounds to be tested in the plasma. After centrifugation at a low temperature, 10 μL of the supernatant was injected, and the drug blood concentration was analyzed by LC-MS/MS. The pharmacokinetic parameters were calculated using Winnonlin based on the drug concentration data at different time points.

Another data set concerns KP-4 cells. In words: 3D proliferation inhibition of KRAS G12D mutated tumor cells, KP-4. The class given is cell-based. The conditions noted are these: Homo sapiens, KP-4, 3D methylcellulose culture, CTG, 120 hours.
Text: as §1, §2, §3, §4, §5, §6

The test system of the next data set is GP2D cells. In words: 3D proliferation inhibition of KRAS G12D mutated tumor cells, GP2D. The class given is cell-based, human. The conditions noted are these: Homo sapiens, GP2d, 3D methylcellulose culture, CTG, 120 hours.
Text: as §1, §2, §3, §4, §5, §6

In data set [4] the test system is KRAS-G12D mutated human colon carcinoma cells GP2d. Kind of data set: Antitumor effect, subcutaneous xenograft of KRAS-G12D mutated human colon carcinoma cells GP2d. The class given is in vivo. The conditions noted are these: BALB/c nude mice, 10 mg/kg, gavage, twice a day. On the procedure:
GP2d cells were purchased from Nanjing Kebai Biotechnology Co., Ltd. BALB/c nude mice, female, were purchased from Jiangsu GemPharmatech LLC. GP2d cells were cultured in culture medium containing DMEM and 10% FBS. The cells in the logarithmic growth phase were collected and resuspended in PBS to an appropriate concentration for subcutaneous tumor inoculation in mice. The experimental mice were subcutaneously inoculated on the right posterior side of the back. The inoculation dose of GP2d cells was 1×10^7 cells per mouse, and the cells were resuspended in a 1:1 mixture of PBS and Matrigel (the inoculation volume was 0.1 mL). When the average tumor volume grew to 150 mm^3, the mice were randomly grouped for administration according to the tumor size and body weight. Administration was started immediately after grouping, and the day of administration was regarded as day 0. The administration was carried out twice a day by gavage, at a dose of 10 mg/kg or a solvent control (0.5% Tween 80+99.5% of (0.5% MC (400 cp))). During the experiment, the body weight of the mice and the size of the tumors were measured twice a week.
The formula for calculating the tumor size: Tumor volume (mm^3)=0.5×(long diameter of tumor×(short diameter of tumor)^2).
Relative tumor inhibition rate TGI (%): TGI %=[1−(average tumor volume at the end of administration of the treatment group−average tumor volume at the beginning of administration of the treatment group)/(average tumor volume at the end of administration of the vehicle control group −average tumor volume at the beginning of administration of the vehicle control group)]×100%.

Turning to `C#Cc1c(F)ccc2cc(O)cc(-c3ncc4c(N5C[C@H]6CC[C@@H](C5)N6)nc(OC[C@]5(C)CN(C)CC/C5=C\F)nc4c3F)c12` [Example 103, 4-(4-((1R,5S)-3,8-diazabicyclo[3.2.1]octan-3-yl)-8-fluoro-2-(((S,E)-4-(fluoromethylene)-1,3-dimethylpiperidin-3-yl)methoxy)pyrido[4,3-d]pyrimidin-7-yl)-5-ethynyl-6-fluoronaphthalen-2-ol], the IC50 (usually the concentration that gives 50% inhibition) in data set [1] stood at 4 nM; with HPAC cells, 1.44 nM; with AsPC-1 cells, 2.09 nM; in the data set on Panc 04.03 cells, 2.12 nM; in the data set with KP-4 cells, 6.92 nM; in the data set with GP2D cells it was 0.42 nM. Besides, the “Tumor volume (mm3) (Day 20)” value in data set [2] (BID × 21) came to 77 mm3. In data set [2] (BID × 21, Day 20), the “TGI (%)” value was 112%. Also, in [3], the AUC(0-inf) – broadly, total exposure, with the tail of the curve extrapolated – stood at 704 ng·h/mL. The AUC(0-t) (usually exposure summed from dosing to a finite time, without extrapolation to infinity) in [3] is 653 ng·h/mL. Further, the half-life (as a rule, the time in which the quantity being followed falls by half) in [3] was 8.15 h.
On to `[2H]C([2H])([2H])N1CC[C@H](C(F)F)[C@](C)(C([2H])([2H])Oc2nc(N3CC4CCC(C3)N4)c3cc(C(F)(F)F)c(-c4cccc5sc(N)c(C#N)c45)c(F)c3n2)C1` (single isomer, unassigned) [Example 321-1], for which the half-maximal inhibitory concentration (IC50) in the data set with HPAC cells came out at 5.38 nM; in the data set on AsPC-1 cells, 1.38 nM; with Panc 04.03 cells it was 1.36 nM; in the data set on KP-4 cells, 4.74 nM; in the data set with GP2D cells it was 0.43 nM. For the same compound, in data set [4], the “Tumor volume (mm3) (Day 21)” value was found to be 70 mm3. Besides, the “TGI (%)” value in data set [4] (Day 21) stood at 109%.
